The series relates to rodent carcinogenicity bioassays, tumor incidence. Put plainly: CCRIS carcinogenicity studies. The method in brief:
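Archive of carcinogenicity, mutagenicity, tumor promotion and tumor inhibition results drawn from journals, NCI reports and other sources, expert-reviewed; covers 1985-2011 and is no longer updated.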

Active and inactive are the calls of the source. No rule for the calls is given here.

This passage reports carcinogen call results from PubChem BioAssay AID1259411 (Chemical Carcinogenesis Research Information System (CCRIS), 2018).

`CCN(CC)C(=O)Nc1ccc(OCC(O)CNC(C)(C)C)c(C(C)=O)c1` (stereo not drawn): the carcinogen call runs as follows: (Species: MOUSE, Strain/Sex: CD-1/FEMALE, Route: ORAL, Dose: 0, 100, 300, 900 MG/KG IN DIET FOR DURATION OF STUDY (STUDY DURATION: 2 YR), Dose: 0, 100, 300, 900 MG/KG IN DIET FOR DURATION OF STUDY (STUDY DURATION: 2 YR)) “inactive; negative”; (Species: MOUSE, Strain/Sex: CD-1/MALE, Route: ORAL, Dose: 0, 100, 300, 900 MG/KG IN DIET FOR DURATION OF STUDY (STUDY DURATION: 2 YR), Dose: 0, 100, 300, 900 MG/KG IN DIET FOR DURATION OF STUDY (STUDY DURATION: 2 YR)) “inactive; negative”; (Species: RAT, Strain/Sex: SPRAGUE-DAWLEY/FEMALE, Route: ORAL, Dose: 0, 100, 300, 900 MG/KG IN DIET FOR 316 D THEN 0, 30, 100, 300 MG/KG FOR DURATION OF STUDY (STUDY DURATION: 2 YR), Dose: 0, 100, 300, 900 MG/KG IN DIET FOR 316 D THEN 0, 30, 100, 300 MG/KG FOR DURATION OF STUDY (STUDY DURATION: 2 YR)) “inactive; negative”; (Species: RAT, Strain/Sex: SPRAGUE-DAWLEY/MALE, Route: ORAL, Dose: 0, 100, 300, 900 MG/KG IN DIET FOR 316 D THEN 0, 30, 100, 300 MG/KG FOR DURATION OF STUDY (STUDY DURATION: 2 YR), Dose: 0, 100, 300, 900 MG/KG IN DIET FOR 316 D THEN 0, 30, 100, 300 MG/KG FOR DURATION OF STUDY (STUDY DURATION: 2 YR)) “inactive; negative”.
For the compound `CCCC(=O)CN(C)N=O`, the carcinogen call (Species: RAT, Strain/Sex: WISTAR/MALE, FEMALE, Route: SUBCUTANEOUS, Dose: 0, 75 MG/KG 1/WK FOR 6 WK TO ADULT ANIMALS (STUDY DURATION: LIFETIME), Tumor Site: Type of Lesion: ESOPHAGUS: PAPILLOMA, NASAL CAVITY: PAPILLOMA, SQUAMOUS CARCINOMA OR ADENOMA, SOFT TISSUE (INJECTION SITE): SARCOMA, THY, Tumor Site: Type of Lesion: ESOPHAGUS: PAPILLOMA, NASAL CAVITY: PAPILLOMA, SQUAMOUS CARCINOMA OR ADENOMA, SOFT TISSUE (INJECTION SITE): SARCOMA, THY) is “active; positive” and the carcinogen call (Species: RAT, Strain/Sex: WISTAR/MALE,FEMALE, Route: INTRAPERITONEAL, Dose: 0, 75 MG/KG 1/WK FOR 6 WK BEGINNING AT 52-61 DAYS OF AGE (STUDY DURATION: >35 WK), Tumor Site: Type of Lesion: ESOPHAGUS: PAPILLOMA, NASAL CAVITY: TUMOR, INJECTION SITE: SARCOMA, Tumor Site: Type of Lesion: ESOPHAGUS: PAPILLOMA, NASAL CAVITY: TUMOR, INJECTION SITE: SARCOMA) is “active; positive”.
For `CCOc1ccc(NC(C)=O)cc1`, the carcinogen call was “active; positive” (Species: MOUSE, Strain/Sex: B6C3F1/MALE, Route: ORAL, Dose: 0.6, 1.25% IN DIET, Tumor Site: Type of Lesion: KIDNEY: RENAL CELL ADENOMA, RENAL CELL CARCINOMA); “active; positive” (Species: RAT, Strain/Sex: SD/CSHI/MALE, Route: ORAL, Dose: 0, 2% IN DIET FOR 85 WK (STUDY DURATION: 85 WK), Tumor Site: Type of Lesion: RENAL PELVIS: CARCINOMA, PAPILLOMA, URINARY BLADDER: PAPILLOMA); “active; positive” (Species: RAT, Strain/Sex: SPRAGUE-DAWLEY/FEMALE, Route: ORAL, Dose: 1.25, 2.5% IN DIET FOR 18 MO, Tumor Site: Type of Lesion: NASAL CAVITY); “active; positive” (Species: RAT, Strain/Sex: SPRAGUE-DAWLEY/MALE, Route: ORAL, Dose: 0, 0.535% IN DIET FOR 117 WK, Tumor Site: Type of Lesion: KIDNEY, NASAL CAVITY: SQUAMOUS CELL CARCINOMA); “active; positive” (Species: RAT, Strain/Sex: SPRAGUE-DAWLEY/MALE, Route: ORAL, Dose: 1.25, 2.5% IN DIET FOR 18 MO, Tumor Site: Type of Lesion: NASAL CAVITY, URINARY TRACT).
`O=c1[nH]c(=O)n([C@H]2C[C@H](O)[C@@H](CO)O2)cc1Br`: the carcinogen call is “active; positive” (Species: RAT, Strain/Sex: LIO/FEMALE, Route: SUBCUTANEOUS, Dose: 0, 3.2 MG ON DAY 1 OR ON DAYS 1 AND 3 OR ON DAYS 1, 3, 7, AND 21 FOLLOWING BIRTH FOR TOTAL DOSES OF 3.2, 6.4, OR 12.8 MG, Tumor Site: Type of Lesion: THYROID: ADENOMA, KIDNEY: MESENCHYMAL TUMORS) and “active; positive” (Species: RAT, Strain/Sex: LIO/MALE, Route: SUBCUTANEOUS, Dose: 0, 3.2 MG ON DAY 1 OR ON DAYS 1 AND 3 OR ON DAYS 1, 3, 7, AND 21 FOLLOWING BIRTH FOR TOTAL DOSES OF 3.2, 6.4, OR 12.8 MG, Tumor Site: Type of Lesion: TESTES: LEYDIGOMA).
